Experiments:
[1] = test system: Rat C6 glioma (ATCC No. CCL107); assay: Anti-inflammatory activity: isoproterenol-induced cAMP synthesis (ELISA); assay type: cell-based; conditions: cAMP after 30 min, induced by (−)-isoproterenol
Protocol: Anti-inflammatory activity of several of the substituted 6-anilinopurine derivatives of this invention was determined; kinetin was also evaluated as a control. Rat C6 glioma (ATCC No. CCL107) was cultivated in monolayer in serum-free chemically defined medium containing Ham's F10/minimal essential medium (1:1 v/v), 2 mM L-glutamine, 1% (v/v) minimal essential medium vitamins (100×), 1% (v/v) minimal essential medium nonessential amino acids (100×), 100 U/ml penicillin, […], and 30 nM sodium selenite. Incubation was performed at 37° C. in a 100% humidified atmosphere. The assays were performed in the logarithmic growth phase at a density of 2.5×10^5 cells/cm^2. Intracellular cAMP synthesis was induced by addition of 5 mM (−)-isoproterenol; various amounts of test compounds were added at the same time as the (−)-isoproterenol. After 30 min incubation, the cellular amount of cAMP was determined using ELISA (cAMP-enzyme immunoassay kit from Amersham). The I50 values were determined from the dose-response curve in duplicate.

[2] = test system: Salmonella typhimurium TA98 and TA100; assay: Ames test; assay type: cell-based; conditions: 2.5 to 5000 μg/plate
Protocol: Amest test was used in order to exclude mutagenic effect of 2-chloro-6-(4-hydroxyanilino)purine. Histidin auxotrophs of Salmonella typhimurium TA98 and TA100 were used as indicator strains and the test was carried out according to standard protocols (Ames et al., Mutation Research, 31, 347-364 (1975); Maron et al., Mutation Research, 113, 173-215 (1983)). Tested concentrations were as follows: 2.5, 5.0, 15, 50, 500, 1500, a 5000 μg/plate. The compound was not mutagenic even in the concentrations exceeding its solubility limit in the culture medium.

[3] = test system: Human diploid fibroblasts HCA; assay: Anti-aging activity: senescence-associated beta-galactosidase in human fibroblasts; assay type: cell-based
Protocol: In this example, effects of the compounds of this invention on the activity of a senescence biomarker senescence-associated β-galactosidase was studied. Human diploid fibroblasts HCA of various passage levels were used for this purpose. The tested compounds were added to the medium at each passage. After the incubation period, cells were washed with PBS and fixed with 2% formaldehyde and 0.2% glutaraldehyde in PBS. After another wash with PBS, they were incubated with the staining solution comprising potassium ferricyanide (5 mM), potassium ferrocyanide (5 mM), MgCl2 (2 mM), X-gal (5-bromo-4-chloro-3-indolyl-β-D-galactopyranoside) (1 mg/ml), in citric/phosphate buffer (pH 6.0) at 37° C. (without CO2) for at least 1 hour. Following the incubation period, the numbers of cells expressing senescence-associated β-galactosidase (blue cells) were counted using light microscope.

[4] = test system: T-lymphoblastic leukemia cell line CEM; assay: Calcein AM cytotoxicity assay; assay type: cell-based, human; conditions: 72 hours
Description: (§1) Absence of toxic effects against mammalian (especially human) cell lines in a wide concentration range is one of the requirements on compounds intended for use in agriculture and medicine. Because toxic compounds negatively influence metabolic processes in cells, many standard cytotoxicity assays are based on measurement of metabolisation rate of various artificial substrates. Resulting product is then quantified e.g. by means of spectrometry. The assays can be easily modified for use in 96-well plates. For evaluation of cytotoxic effect of compounds of this invention, a microtiter assay based on quantification of metabolisation of Calcein AM was used. The assay is widely used in drug screening programs and in chemosensitivity testing. In live cells, Calcein AM is enzymatically hydrolysed and accumulation of resulting calcein is manifested by green fluorescence.
(§2) Mouse cell lines B16-F10 (melanoma) and NIH-3T3 (fibroblasts) were used as well. The cells were maintained in Nunc/Corning 80 cm^2 plastic tissue culture flasks and cultured in cell culture medium (DMEM with 5 g/l glucose, 2 mM glutamine, 100 U/ml penicillin, 100 μg/ml streptomycin, 10% fetal calf serum and sodium bicarbonate).
(§3) The cell suspensions were prepared and diluted according to the particular cell type and the expected target cell density (2.500-30.000 cells per well based on cell growth characteristics) and pippetted (80 μl) into 96-well plates. Inoculates were allowed a pre-incubation period of 24 hours at 37° C. and 5% CO2 for stabilisation. Tested compound was added in total volume of 20 μl of water at time zero. Usually, test compound was evaluated at six 3-fold dilutions. […] All drug concentrations were tested in triplicates. Incubations of cells with the test compounds lasted for 72 hours at 37° C., in 5% CO2 atmosphere and 100% humidity. At the end of incubation period Calcein AM in PBS was added into final concentration of 1 μg/ml. After another 1 hour of incubation fluorescence (FD) was measured with the Labsystem FIA Reader Fluoroscan Ascent (UK). Growth inhibition (GI) was estimated using the following equitation: GI=(mean FDdrug exposed wells−mean FDblank)/(mean FDcontrol wells−mean FDblank)×100%.

[5] = test system: promyelocytic leukemia cell line HL-60; assay: Calcein AM cytotoxicity assay; assay type: cell-based, human; conditions: 72 hours, read-out: GI50 HL60
Description: as §1, §2, §3

[6] = test system: breast carcinoma cell line MCF-7; assay: Calcein AM cytotoxicity assay; assay type: cell-based, human; conditions: 72 hours, read-out: GI50 MCF7
Description: as §1, §2, §3

[7] = test system: B16-F0; assay: Calcein AM cytotoxicity assay; assay type: cell-based, Mouse; conditions: 72 hours
[8] = test system: melanoma cell line G-361; assay: Calcein AM cytotoxicity assay; assay type: cell-based, human; conditions: 72 hours
Description: as §1
as §2, with “Following human cell lines were used for routine screening of the compounds: T-lymphoblastic leukemia cell line CEM, promyelocytic leukemia cell line HL-60, erytroid leukemia cell line K-562, breast carcinoma cell line MCF-7, osteosarcoma cell line HOS and melanoma cell line G-361. Mouse” for “Mouse”
(§4) The cell suspensions were prepared and diluted according to the particular cell type and the expected target cell density (2.500-30.000 cells per well based on cell growth characteristics) and pippetted (80 μl) into 96-well plates. Inoculates were allowed a pre-incubation period of 24 hours at 37° C. and 5% CO2 for stabilisation. Tested compound was added in total volume of 20 μl of water at time zero. Usually, test compound was evaluated at six 3-fold dilutions. In routine testing, the highest concentration tested was 166.6 μM. All drug concentrations were tested in triplicates. Incubations of cells with the test compounds lasted for 72 hours at 37° C., in 5% CO2 atmosphere and 100% humidity. At the end of incubation period Calcein AM in PBS was added into final concentration of 1 μg/ml. After another 1 hour of incubation fluorescence (FD) was measured with the Labsystem FIA Reader Fluoroscan Ascent (UK). Growth inhibition (GI) was estimated using the following equitation: GI=(mean FDdrug exposed wells−mean FDblank)/(mean FDcontrol wells−mean FDblank)×100%. The GI50 value, the drug concentration causing 50% reduction of Calcein AM conversion, was calculated from the obtained dose response curves.

[9] = test system: osteosarcoma cell line HOS; assay: Calcein AM cytotoxicity assay; assay type: cell-based, human; conditions: 72 hours
Description: as §1
as §2, with “Following human cell lines were used for routine screening of the compounds: T-lymphoblastic leukemia cell line CEM, promyelocytic leukemia cell line HL-60, erytroid leukemia cell line K-562, breast carcinoma cell line MCF-7, osteosarcoma cell line HOS and melanoma cell line G-361. Mouse” for “Mouse”
as §4

[10] = test system: erytroid leukemia cell line K-562; assay: Calcein AM cytotoxicity assay; assay type: cell-based, human; conditions: 72 hours
Description: as §1
as §2, with “Following human cell lines were used for routine screening of the compounds: T-lymphoblastic leukemia cell line CEM, promyelocytic leukemia cell line HL-60, erytroid leukemia cell line K-562, breast carcinoma cell line MCF-7, osteosarcoma cell line HOS and melanoma cell line G-361. Mouse” for “Mouse”
as §4

[11] = test system: NIH-3T3 (fibroblasts); assay: Calcein AM cytotoxicity assay; assay type: cell-based, Mouse; conditions: 72 hours
Description: as §1, §2, §3

SMILES | IC50 ([1]; Rattus norvegicus, C6 glioma, 0.5 h, read-out: I50) [µM] | Effect (anti-inflammatory activity) [1] | mutagenic effect [2] | Senescent Cells (%) HCA passage 25 ([3]; passage 25, cells expressing senescence-associated beta-galactosidase) [%] | Senescent Cells (%) HCA passage 50 ([3]; passage 50, cells expressing senescence-associated beta-galactosidase) [%] | Senescent Cells (%) HCA passage 80 ([3]; passage 80, cells expressing senescence-associated beta-galactosidase) [%] | GI50 [4] [µM] | GI50 [5] [µM] | GI50 [6] [µM] | GI50 [7] [µM] | GI50 [8] [µM] | GI50 [9] [µM] | GI50 [10] [µM] | GI50 [11] [µM]
Oc1ccc(Nc2nc(Cl)nc3nc[nH]c23)cc1 [Compound 10, 2-chloro-6-(4-hydroxyanilino)purine] | 13 | Inhibition | not mutagenic | 4 | 6 | 22 |  |  |  |  |  |  |  | 
Oc1cccc(CNc2ncnc3nc[nH]c23)c1 [meta-topolin, reference compound] |  |  |  |  |  |  | 90.1 | 79.2 | > 167 | 90.6 | > 167 | > 167 | 128 | > 167
Oc1ccccc1CNc1ncnc2nc[nH]c12 [ortho-topolin, reference compound] |  |  |  |  |  |  | 69.2 | 78 | > 167 | 150 | 103 | > 167 | > 167 | > 167

Reference: US8222260B2, “Substituted 6-anilinopurine derivatives as inhibitors of cytokinin oxidase/dehydrogenase and preparations containing these derivatives” (Univerzita Palackego V Olomouci, priority 2007, dated 2012)
